No end group written: not given here.
Tested on: Arabidopsis leaves
Assay: Ethylene formation in Arabidopsis leaves / leaf discs
Format: cell-based, Arabidopsis thaliana
Settings: for EC50: synthetic peptides, Arabidopsis leaves, at least six different peptide concentrations, means ± SD of three replicates
Method: For MAPK activity assays, infiltrated plant material was harvested after 15 minutes and frozen in liquid nitrogen before used for protein extraction in 20 mM Tris-HCl pH 7.5, 150 mM NaCl, 1 mM EDTA, 1% Triton X-100, 0,1% SDS, 5 mM DTT, Complete Protease Inhibitor Mini, EDTA-free (Roche, Mannheim), PhosStop Phosphatase Inhibitor Cocktail (Roche, Mannheim). After pelleting the cell debris (10 min, 16000 g, 4°C), the supernatant (30 µg protein) was separated on a 10% SDS-PAGE and transferred to a nitrocellulose membrane and activated MAPK6, 3 and 4 were detected by western blotting using the anti phospho p44/42-MAPK antibody from rabbit (Cell Signaling Technology, The Netherlands). For ROS burst measurements two leaf pieces, floated on ddH2O overnight, were placed in one well of a 96-well plate, containing 100 µl of a 20 µM L-012 and 0.5 µg ml^−1 peroxidase solution. Background was measured shortly in a 96-well Luminometer, (Mithras LB 940, Berthold Technologies) before elicitation with a peptide solution or control treatment respectively. The detection of ethylene was performed as described. Leaf pieces were incubated in 20 mM MES buffer, pH 5.7. To visualize callose apposition, leaves were treated as described and harvested 24 hours after infiltration of a peptide solution. Quantification of callose was performed by counting selected pixels and calculated in % relative to the respective image section of the leaf surface. Pictures were analyzed using Photoshop CS6 Magic tool, hereby removing background and leaf-veins within a certain color range. (Use: white, Mode: normal, Opacity: 100%). Medium alkalinization in suspension-cultured Arabidopsis cells and detection of GUS enzyme activity in PR1::GUS transgenic Arabidopsis plants were performed as described previously, [43]. Surface-sterilized Arabidopsis Col-0 seeds were grown in ½ MS liquid medium supplemented with 1 µM of nlp20 (PpNLP) peptide or its orthologs respectively, and flg22 or H2O serving as controls. Root length of two weeks-old seedlings was determined upon transfer onto agar plates.

| Sequence | EC50 [nM] | elicitor activity (ethylene production in Arabidopsis leaf disks), in words |
| --- | --- | --- |
| AIMYAWYFPKDSPVTGLGHRHDWE [compound 19] | 18 ± 10 | – |
| AIMYSWYFPKDAPVTGLGHRHDWE [compound 26] | 57 ± 28 | – |
| AIMYSWYFPKDSPVTGLGHRHDWA [compound 38] | 7.3 ± 1.7 | – |
| AIMYSWYFPADSPVTGLGHRHDWE [compound 24] | 89 ± 31 | – |
| WIMYSWYFPKDSPVTGLGHRHDWE [compound 15] | 55 ± 24 | – |
| AIAYSWYFPKDSPVTGLGHRHDWE [compound 17] | 42 ± 9 | – |
| AIMYSWYFPKDSPVTGAGHRHDWE [compound 31] | 24 ± 8 | – |
| AIMYSWYFPKDSPVTGLGHRADWE [compound 35] | 7.7 ± 1.7 | – |
| AIMYSWYFPKDSPVTGLGHRHDAE [compound 37] | 7.3 ± 1.8 | – |
| AIMYSWYFPKDSPATGLGHRHDWE [compound 28] | 30 ± 11 | – |
| AIMYSWAFPKDSPVTGLGHRHDWE [compound 21] | 2630 ± 208 | – |
| RVATYNGVYAIMYSWYFPKD [compound 7] | 84 ± 11 | – |
| AIMYSWYAPKDSPVTGLGHRHDWE [compound 22] | 5.4 ± 3 | – |
| AIMYSWYFPKDSPVAGLGHRHDWE [compound 29] | 25 ± 15 | – |
| KDSPVTGLGHRHDWE [compound 5] | > 100000 | – |
| AIMYSWYFPKDSPVTGLAHRHDWE [compound 32] | 220 ± 78 | – |

| Sequence | EC50 [nM] | elicitor activity (ethylene production in Arabidopsis leaf disks), in words |
| --- | --- | --- |
| SWYFPKDSPVTGLGHR [compound 14] | > 100000 | – |
| AIMASWYFPKDSPVTGLGHRHDWE [compound 18] | 1500 ± 436 | – |
| MYSWYFPKDSPVTGLGHR [compound 11] | 1550 ± 328 | – |
| YSWYFPKDSPVTGLGHR [peptide 12] | > 50000 | inactive |
| AIMYSWYFPKDSPVTALGHRHDWE [compound 30] | 23 ± 7.6 | – |
| AIMYSWYFPKDSPVTGLGHRHAWE [compound 36] | 6.2 ± 5.6 | – |
| AIMYSWYFAKDSPVTGLGHRHDWE [compound 23] | 307 ± 153 | – |
| AIMYSWYFPKDSAVTGLGHRHDWE [compound 27] | 76 ± 45 | – |
| IMYSWYFPKDSPVTGLGHR [compound 10] | 133 ± 10 | – |
| SWYFPKDSPVTGLGH [peptide 4] | > 100000 | – |
| YAIMYSWYFPKDSPV [compound 3] | 217 ± 65 | – |
| AIMYSWYFPKDSPVTGLGARHDWE [compound 33] | 48 ± 34 | – |
| AIMYSWYFPKASPVTGLGHRHDWE [compound 25] | 97 ± 36 | – |
| AIMYSWYFPKDSPVTGLGHAHDWE [compound 34] | 283 ± 40 | – |
| AAMYSWYFPKDSPVTGLGHRHDWE [compound 16] | 1570 ± 252 | – |

Reference: publication PMC4223075, “A Conserved Peptide Pattern from a Widespread Microbial Virulence Factor Triggers Pattern-Induced Immunity in Arabidopsis” (PLoS Pathogens, 2014)
